Test results reported in patent US20180055844A1 (Celgene Corporation, priority 2011, published 2018).

Columns and labels:
Experiment in all cases: Activity against lenalidomide resistant cell lines
Format in all cases: cell-based
1053 = settings: 1053, n = 3
Experimental: (§1) The ability of compounds to effect the proliferation of MM cell lines was investigated in an in vitro study. Uptake of [^3H]-thymidine by H929 MM cells and 7-AAD uptake in several MM cell lines (H929, U266B1, Anbl-6, KMS-34, OPM-2, DF-15, DF15/R, CAG, MM1.S and LP-1) was measured as an indicator of cell proliferation. Cells were incubated in the presence of compounds for 72 hours ([^3H]-thymidine was included for the last 6 hours of the incubation period) or 5 days followed by 7-AAD uptake to measure and count viable cells.

1051 = settings: 1051, n = 3
Experimental: as §1

D1 = settings: D1, n = 3
Experimental: as §1

1054 = settings: 1054, n = 3
Experimental: as §1

H929 = settings: Homo sapiens, NCI-H929; H929, n = 3
Experimental: as §1

1052 = settings: 1052, n = 3
Experimental: as §1

IC50 1053: No IC50
IC50 1051: No IC50
IC50 (D1): No IC50
IC50 1054: No IC50
IC50 (H929): 12.6 µM
IC50 1052: No IC50
Compound: Nc1cccc2c1CN(C1CCC(=O)NC1=O)C2=O (stereo not drawn) [Lenolidomide, Lenalidomide, reference compound]
